Drawing on US11478451B1, “Macrocyclic chlorine substituted indole derivatives” (Bayer Aktiengesellschaft, priority 2017, dated 2022), this text covers IC50 and EC50 for six compounds.

Data set [1] has as its system SUDHL5 cells. Briefly: Induction of cytotoxicity (CellTiter-Glo, 5 h), SUDHL5. The settings on record: SUDHL5, 5 h. In general terms: Cellular ATP, detected with luciferase, serves as a proxy for viable cell number.
The test system of data set [2] is SUDHL10 cells. The data set can be described thus: Induction of cytotoxicity (CellTiter-Glo, 5 h), SUDHL10. The settings on record: SUDHL10, 5 h.
Experimental: Therefore, cytotoxicity assays were run in parallel in SUDHL5 and SUDHL10 cells.
The different cell lines were plated in culture medium (RPMI 1640 [GIBCO #22400-089] supplemented with 10% Fetal Bovine Serum) at a density of 3,300 cells in 30 μL/well in a sterile, solid black, flat bottom, polystyrene, TC-treated 384-well microplate (Corning #3571) using Multidrop Combi Reagent Dispenser. As a control, medium without cells was also added to the plate. Cells were incubated in a humidified incubator at 37° C. overnight. […] Rim wells were excluded. The cells were incubated for 5 h hours in a humidified incubator at 37° C. After this incubation, 30 μL of CellTiter-Glo® Luminescent Cell Viability reagent (Promega, G7573) was added to each well using the Multidrop Combi Reagent Dispenser, followed by 15 min incubation on a shaker at room temperature. Finally, luminescence was read at 0.1 ms, with a gain of 3000 using the PHERAstar FS microplate reader (BMG Labtech).
For the next data set, the system named is HMC-1-8 cells. The data set can be described thus: Antiproliferation assay (CellTiter-Glo, 72 h), HMC-1-8. The data set is classed as cell-based. The settings on record: IC50, median, HMC-1-8, 72 h, read-out: Antiproli HMC-1-8 [M] median. The protocol:
Assessment of the Anti-Proliferative Effect of Compounds in Different Cell Lines
The impact of compounds on the proliferation of different cell lines was assessed using the CellTiter-Glo® Luminescent Cell Viability reagent from Promega (G7573).
In parallel, cells were plated in a reference (day 0) plate for time zero determination.
Rim wells were excluded. The cells were incubated for 72 h hours in a humidified incubator at 37° C. The day 0 plate was measured by adding 30 μL/well of CTG solution (CellTiter-Glo® Luminescent Cell Viability reagent, Promega G7573) to time zero wells in the reference plate followed by a 10 minutes incubation and luminescence reading at 0.1 ms. using the PHERAstar FS microplate reader (BMG Labtech).
After 72 h incubation, the treated plates were measured in the same way as the day 0 plate mentioned above.

The test system of data set [3] is SUDHL10 cells. Briefly: Induction of caspase-3/7 activity (Caspase-Glo 3/7), SUDHL10. Type of data set: cell-based. The settings on record: EC50, median, SUDHL10, 3 h treatment. In short, it runs like this: (§1)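 Steps: seed the diffuse large B-cell lymphoma cells, leaving rim wells unused; add compounds; incubate 3 h at 37 °C; add Caspase-Glo 3/7 reagent; read; subtract medium-only background.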

Data set [4] has as its system SUDHL5 cells. The data set can be described thus: Induction of caspase-3/7 activity (Caspase-Glo 3/7), SUDHL5. The note with it: EC50, median, SUDHL5, 3 h treatment. Type of data set: cell-based. In short, it runs like this:
as §1

Data set [5] relates to SUDHL5 cells. Briefly: Antiproliferation assay (CellTiter-Glo, 72 h), SUDHL5. The data set is classed as cell-based. The settings on record: IC50, median; SUDHL5, 72 h; read-out: Antiproli SUDHL5 [M] (median). In short, it runs like this: (§2)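 Luminescent ATP-based viability (CellTiter-Glo) measured after 72 h of compound treatment at 37 °C. A day 0 plate recorded at time zero served as the starting reference for proliferation.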

Another data set concerns AMO-1 cells. Briefly: Antiproliferation assay (CellTiter-Glo, 72 h), AMO-1. The data set is classed as cell-based. The note with it: IC50, median, AMO-1, 72 h, read-out: Antiproli AMO-1 [M] median. In short, it runs like this:
as §2

Where a name gives a salt, the structure may show the parent alone. Read-outs that look alike come from different tables or passages of the source.

As for `Cc1c2c(nn1C)COCC1CCC1Cn1c(C(=O)O)c(CCCOc3cccc4ccccc34)c3ccc(Cl)c-2c31` (single isomer, unassigned) [Example 81, 3-chloro-4,5-dimethyl-15-{3-[(naphthalen-1-yl)oxy]propyl}-5,7,9,9a,10,11,11a,12-octahydrocyclobuta[3,4]pyrazolo[4′,3′:9,10][1,6]oxazacycloundecino[8,7,6-hi]indole-14-carboxylic acid], the IC50 with SUDHL5 cells [1] (read-out: Cytotox SUDHL5 [M] (median), IC50, median, listed as 081) is 5.8e-06 M; in the data set with SUDHL10 cells [2] (read-out: Cytotox SUDHL10 [M] (median), IC50, median, listed as 081), 8.4e-06 M; with HMC-1-8 cells (listed as 081) it was 5.5e-06 M. Also, the EC50 in the data set with SUDHL10 cells [3] (listed as 081) stood at 6.2 µM; in the data set on SUDHL5 cells [4] (listed as 081), 7.4 µM.
For `CCc1c2c(nn1C)CCCN(CC(F)F)CCn1c(C(=O)O)c(CCCOc3cccc4cc(F)ccc34)c3ccc(Cl)c-2c31` [Example 120, (−)-4-chloro-12-(2,2-difluoroethyl)-3-ethyl-7-{3-[(6-fluoronaphthalen-1-yl)oxy]propyl}-2-methyl-10,11,12,13,14,15-hexahydro-2H-pyrazolo[3′,4′:8,9][1,4]diazacycloundecino[10,11,1-hi]indole-8-carboxylic acid N-ethylethanamine salt], the values for the IC50 in the data set with SUDHL5 cells [5] and in the data set on HMC-1-8 cells were 7e-06 M and 7.1e-06 M, respectively. For the same compound, a half-maximal effect with SUDHL5 cells [4] (EC50) was put at 10 µM.
Turning to `Cc1nn(C)c2c1-c1c(Cl)ccc3c(CCCOc4cccc5ccccc45)c(C(=O)O)n(c13)CCCCOC2` (single isomer, unassigned; enantiomer 1) [Example 3, 4-chloro-1,3-dimethyl-7-[3-(naphthalen-1-yloxy)propyl]-1,10,11,12,13,15-hexahydropyrazolo[4′,3′:9,10][1,6]oxazacycloundecino[8,7,6-hi]indole-8-carboxylic acid (Enantiomer 1)], the IC50 was determined as 2.5e-06 M in the data set on AMO-1 cells (Homo sapiens, AMO1, 72 h); 6.5e-07 M in the data set on SUDHL5 cells [1] (Homo sapiens, SU-DHL-5, 5 h, read-out: Cytotox SUDHL5 [M] (median), IC50, median); 1.5e-06 M in the data set with SUDHL10 cells [2] (Homo sapiens, SU-DHL10, 5 h, read-out: Cytotox SUDHL10 [M] (median), IC50, median); 8.3e-06 M with HMC-1-8 cells (72 h). The EC50 in the data set with SUDHL10 cells [3] (Homo sapiens, SU-DHL10, 3 h) stood at 1.6 µM; in the data set with SUDHL5 cells [4] (Homo sapiens, SU-DHL-5, 3 h) it was 0.71 µM.
`Cc1c2c(nn1C)CN(CC(F)(F)F)CCCCn1c(C(=O)O)c(CCCOc3cccc4cc(F)ccc34)c3ccc(Cl)c-2c31` (single isomer, unassigned; enantiomer 2) [Example 60, 4-chloro-7-{3-[(6-fluoronaphthalen-1-yl)oxy]propyl}-2,3-dimethyl-14-(2,2,2-trifluoroethyl)-10,11,12,13,14,15-hexahydro-2H-pyrazolo[3′,4′:8,9][1,6]diazacycloundecino[10,11,1-hi]indole-8-carboxylic acid—Enantiomer 2]: the IC50 in the data set with SUDHL5 cells [5] came to 3.9e-06 M; with SUDHL5 cells [1] (read-out: Cytotox SUDHL5 [M] (median), IC50, median) it was 6.9e-06 M; in the data set with HMC-1-8 cells (72 h), 8.7e-06 M. For the same compound, the EC50 with SUDHL5 cells [4] turned out to be 7.6 µM.
Consider `Cc1c2c(nn1C)COCC1CCC1Cn1c(C(=O)O)c(CCCOc3cccc4ccccc34)c3ccc(Cl)c-2c31` (single isomer, unassigned; enantiomer 2) [Example 79, 3-chloro-4,5-dimethyl-15-{3-[(naphthalen-1-yl)oxy]propyl}-5,7,9,9a,10,11,11a,12-octahydrocyclobuta[3,4]pyrazolo[4′,3′:9,10][1,6]oxazacycloundecino[8,7,6-hi]indole-14-carboxylic acid (Enantiomer 2)], for which the IC50 worked out at 1.7e-06 M in the data set on AMO-1 cells (listed as 079); 7.7e-07 M in the data set with SUDHL5 cells [1] (read-out: Cytotox SUDHL5 [M] (median), IC50, median, listed as 079); 1.6e-06 M with SUDHL10 cells [2] (read-out: Cytotox SUDHL10 [M] (median), IC50, median, listed as 079); 8.6e-06 M in the data set on HMC-1-8 cells (72 h). The EC50 in the data set with SUDHL10 cells [3] (listed as 079) is 1.4 µM; in the data set with SUDHL5 cells [4] (listed as 079), 0.58 µM.
Consider `Cc1c2c(nn1C)COCCC(F)(F)Cn1c(C(=O)O)c(CCCOc3cccc4ccccc34)c3ccc(Cl)c-2c31` [Example 94, 4-chloro-11,11-difluoro-2,3-dimethyl-7-{3-[(naphthalen-1-yl)oxy]propyl}-2,10,11,12,13,15-hexahydropyrazolo[4′,3′:9,10][1,6]oxazacycloundecino[8,7,6-hi]indole-8-carboxylic acid N-ethylethanamine salt], for which the IC50 in the data set on SUDHL5 cells [1] (read-out: Cytotox SUDHL5 [M] (median), IC50, median, listed as 094) came out at 2.9e-06 M; with SUDHL10 cells [2] (read-out: Cytotox SUDHL10 [M] (median), IC50, median, listed as 094), 4.5e-06 M; in the data set on HMC-1-8 cells (72 h), 6.3e-06 M. For the same compound, the results for the EC50 in the data set with SUDHL10 cells [3] (listed as 094) and in the data set on SUDHL5 cells [4] (listed as 094) were 3.1 µM and 1.6 µM, respectively.

A word on the EC50: it is the concentration giving half of the maximal effect. A higher EC50 goes with a less potent agent.
